Reference: ChEMBL document CHEMBL1154271, “Anti-tumor-promoting effects of 25-methoxyporicoic acid A and other triterpene acids from Poria cocos” (J Nat Prod, 2009)
pIC50: −log10 of the molar value.

What was measured:
Raji [1] = assay: Inhibition of TPA-induced EBV early antigen activation in human Raji cells at 500 molar relative to TPA; values are per cent of control; settings: human gammaherpesvirus 4
[2] = Cytotoxicity against human CRL1579 cells after 48 hrs by MTT assay; format: functional, cell-based
HL-60 = assay: Cytotoxicity against human HL60 cells after 48 hrs by MTT assay; format: functional, cell-based; settings: HL-60, 48 h
Raji [3] = assay: Inhibition of TPA-induced EBV early antigen activation in human Raji cells at 100 molar relative to TPA; values are per cent of control; settings: human gammaherpesvirus 4
[4] = Inhibition of TPA-induced EBV early antigen activation in human Raji cells relative to TPA; format: cell-based, human gammaherpesvirus 4
[5] = Cytotoxicity against human Raji cells assessed as cell viability at 1000 molar ratio; format: cell-based; settings: read-out: INH
Raji [6] = assay: Inhibition of TPA-induced EBV early antigen activation in human Raji cells at 10 molar ratio relative to TPA; values are per cent of control; settings: human gammaherpesvirus 4
Raji [7] = assay: Inhibition of TPA-induced EBV early antigen activation in human Raji cells at 1000 molar relative to TPA; values are per cent of control; settings: human gammaherpesvirus 4
Mus musculus [8] = species on record: Mus musculus; assay: Inhibition of DMBA-induced/TPA-promoted carcinogenesis in ICR mouse assessed as reduction of skin papillomas measured after 11 weeks relative to TPA; format: functional
Mus musculus [9] = species on record: Mus musculus; assay: Inhibition of DMBA-induced/TPA-promoted carcinogenesis in ICR mouse assessed as reduction of skin papillomas measured after 20 weeks relative to TPA; format: functional

SMILES	IC50 [4] [molar ratio]	level, % of control (Raji [1]) [%]	pIC50 [2]	pIC50 (HL-60)	level, % of control (Raji [3]) [%]	viability at 1000 molar ratio [5] [%]	level, % of control (Raji [6]) [%]	level, % of control (Raji [7]) [%]	inhibition (INH) (Mus musculus [8]) [%]	inhibition (INH) (Mus musculus [9]) [%]
C=C(CC[C@@H](C(=O)O)[C@H]1[C@H](O)C[C@@]2(C)[C@]34C=C[C@@]5(OO3)C(C)(C)[C@@H](O)CC[C@]5(C)C4=CC[C@]12C)C(C)C	–	–	< 4.00	< 4.00	–	–	–	–	–	–
C=C(CC[C@@H](C(=O)O)[C@H]1[C@H](O)C[C@@]2(C)C3=CC[C@H]4C(C)(C)[C@H](O)CC[C@]4(C)C3=CC[C@]12C)C(C)(C)O	–	–	4.08	4.53	–	–	–	–	–	–
C=C(CC[C@@H](C(=O)O)[C@H]1[C@H](O)C[C@@]2(C)C3=C(CC[C@]12C)[C@@](C)(CCC(=O)O)[C@H](C(=C)C)C=C3)C(C)C [6,7-DEHYDROPORICOIC ACID H]	193	15.2	< 4.00	< 4.00	56	70	80.9	0	–	–
C=C(CC[C@@H](C(=O)O)[C@H]1[C@H](O)C[C@@]2(C)C3=CC[C@@H](C(=C)C)[C@](C)(CCC(=O)OC)C3=CC[C@]12C)C(C)C [PORICOIC ACID AM]	–	–	4.05	4.80	–	–	–	–	–	–
C=C(CC[C@@H](C(=O)O)[C@H]1[C@H](O)C[C@@]2(C)C3=CC[C@@H](C(=C)C)[C@](C)(CCC(=O)O)C3=CC[C@]12C)C(C)C [PORICOIC ACID A]	–	–	< 4.00	4.42	–	–	–	–	–	–
C=C(C)[C@@H]1CC=C2C(=CC[C@]3(C)[C@@H]([C@@H](CCC=C(C)C)C(=O)O)[C@H](O)C[C@@]23C)[C@@]1(C)CCC(=O)O [PORICOIC ACID B]	–	–	< 4.00	< 4.00	–	–	–	–	–	–
C=C(C)[C@@H]1CC=C2C(=CC[C@]3(C)[C@@H]([C@@H](CCC(=C)C(C)(C)O)C(=O)O)[C@H](O)C[C@@]23C)[C@@]1(C)CCC(=O)OC [PORICOIC ACID DM]	–	–	< 4.00	< 4.00	–	–	–	–	–	–
C=C(C)[C@@H]1CCC2=C(CC[C@]3(C)[C@@H]([C@@H](CCC=C(C)C)C(=O)O)[C@H](O)C[C@@]23C)[C@@]1(C)CCC(=O)OC [PORICOIC ACID GM]	216	19.9	–	–	60.1	70	86.4	0	–	–
C=C(C)[C@@H]1CCC2=C(CC[C@]3(C)[C@@H]([C@@H](CCC=C(C)C)C(=O)O)[C@H](O)C[C@@]23C)[C@@]1(C)CCC(=O)O [PORICOIC ACID G]	–	–	< 4.00	4.49	–	–	–	–	–	–
C=C(CC[C@@H](C(=O)O)[C@H]1[C@H](O)C[C@@]2(C)C3=C(CC[C@]12C)[C@@](C)(CCC(=O)O)[C@H](C(=C)C)CC3)C(C)C [PORICOIC ACID H]	–	–	< 4.00	4.55	–	–	–	–	–	–

Now from value to compound, other results behind:

IC50 [4] [molar ratio]	SMILES	level, % of control (Raji [1]) [%]	pIC50 [2]	pIC50 (HL-60)	level, % of control (Raji [3]) [%]	viability at 1000 molar ratio [5] [%]	level, % of control (Raji [6]) [%]	level, % of control (Raji [7]) [%]	inhibition (INH) (Mus musculus [8]) [%]	inhibition (INH) (Mus musculus [9]) [%]
299	C=C(CC[C@@H](C(=O)O)[C@H]1[C@H](O)C[C@@]2(C)C3=C(CC[C@]12C)[C@@]1(C)CCC(=O)C(C)(C)[C@@H]1CC3)C(C)(C)O	36.1	4.54	4.07	72.2	70	96.1	0	–	–
348	C=C(CC[C@@H](C(=O)O)[C@H]1[C@H](O)C[C@@]2(C)C3=C(CC[C@]12C)[C@@]1(C)CCC(=O)C(C)(C)[C@@H]1CC3)C(C)C	28.3	< 4.00	< 4.00	70.3	70	96.4	2.2	–	–
187	C=C(C)[C@@H]1CC=C2C(=CC[C@]3(C)[C@@H]([C@@H](CCC(=C)C(C)(O)CO)C(=O)O)[C@H](O)C[C@@]23C)[C@@]1(C)CCC(=O)OC (stereo partly specified)	14.1	4.01	4.02	55.3	70	80.2	0	–	–
238	CC(C)(O)c1ccc2c(c1)C(=O)C[C@H]1[C@](C)(C(=O)O)CCC[C@]21C	19.5	< 4.00	< 4.00	69.1	60	93.4	0	–	–
201	C=C(C)[C@@H]1CC=C2C(=CC[C@]3(C)[C@@H]([C@@H](CCC(=C)C(C)(C)O)C(=O)O)CC[C@@]23C)[C@@]1(C)CCC(=O)O [25-HYDROXYPORICOIC ACID C]	16.2	4.03	4.51	57.1	70	83.1	0	–	–
268	C=C(C)[C@@H]1CC=C2C(=CC[C@]3(C)[C@@H]([C@@H](CCC(=C)C(C)(C)OC)C(=O)O)[C@H](O)C[C@@]23C)[C@@]1(C)CCC(=O)O [25-METHOXYPORICOIC ACID A]	17.8	< 4.00	< 4.00	58.2	70	84.4	0	20	80
397	CC1=C(/C=C/C(C)=C/C=C/C(C)=C/C=C/C=C(C)/C=C/C=C(C)/C=C/C2=C(C)CCCC2(C)C)C(C)(C)CCC1 [BETA CAROTENE]	34.2	–	–	82.1	–	100	8.6	–	–
219	C=C(CC[C@@H](C(=O)O)[C@H]1[C@H](O)C[C@@]2(C)C3=C(CC[C@]12C)[C@@](C)(CCC(=O)OC)[C@H](C(=C)C)CC3)C(C)C [PORICOIC ACID HM]	20.3	–	–	61.3	70	87.5	0	–	–
